Molecules are shown by their SMILES.

This assay addresses T1, Cbl-b (Homo sapiens, UniProt Q13191).
T1 construct: biotin (biotinylated protein)
The assay can be described thus: Cbl-b probe displacement HTRF binding assay. The following applies: 0.4 nM Cbl-b, 150 nM BODIPY probe. A digest of the protocol: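 Compound competes with BODIPY probe (150 nM) for biotinylated Cbl-b (0.4 nM) in HEPES/NaCl/Triton/TCEP/BSA buffer; 60 min preincubation, 15 min with probe, room temperature. Tb-streptavidin HTRF read; % displacement vs DMSO and no-protein controls, IC50 from four-parameter fit.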

T1 sequence (Q13191 whole entry, species assumed): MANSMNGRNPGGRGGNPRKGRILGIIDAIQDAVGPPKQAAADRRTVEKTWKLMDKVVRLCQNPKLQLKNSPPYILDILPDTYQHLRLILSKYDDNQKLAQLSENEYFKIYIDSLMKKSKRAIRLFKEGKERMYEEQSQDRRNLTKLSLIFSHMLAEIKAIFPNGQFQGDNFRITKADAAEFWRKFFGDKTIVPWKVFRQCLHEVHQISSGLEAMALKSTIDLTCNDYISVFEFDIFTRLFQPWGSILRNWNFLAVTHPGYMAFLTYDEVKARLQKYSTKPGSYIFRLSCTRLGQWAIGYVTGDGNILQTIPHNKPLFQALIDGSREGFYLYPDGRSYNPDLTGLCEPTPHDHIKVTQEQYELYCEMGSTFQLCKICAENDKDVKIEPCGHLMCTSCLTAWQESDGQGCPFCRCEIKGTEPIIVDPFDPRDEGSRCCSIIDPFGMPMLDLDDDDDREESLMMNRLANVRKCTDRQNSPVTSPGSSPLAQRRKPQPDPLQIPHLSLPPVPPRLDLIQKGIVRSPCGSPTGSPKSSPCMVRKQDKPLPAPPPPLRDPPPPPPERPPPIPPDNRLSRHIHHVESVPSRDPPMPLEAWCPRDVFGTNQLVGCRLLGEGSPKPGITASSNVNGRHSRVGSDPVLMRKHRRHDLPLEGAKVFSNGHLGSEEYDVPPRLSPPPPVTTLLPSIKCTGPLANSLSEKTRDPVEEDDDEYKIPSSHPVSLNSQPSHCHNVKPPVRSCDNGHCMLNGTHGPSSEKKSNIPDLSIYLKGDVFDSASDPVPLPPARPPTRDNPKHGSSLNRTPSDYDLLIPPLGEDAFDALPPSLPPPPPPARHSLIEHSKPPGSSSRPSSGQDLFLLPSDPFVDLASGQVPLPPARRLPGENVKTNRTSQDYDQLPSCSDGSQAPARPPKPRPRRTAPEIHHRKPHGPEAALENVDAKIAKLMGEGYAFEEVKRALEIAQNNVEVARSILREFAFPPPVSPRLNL

By IC50 is commonly meant the concentration needed to halve the response being measured. Compound `COc1ccc(-c2cc(NC(=O)c3cc(CNC[C@H](C)OC)cn(C4CC4)c3=O)nc(OC(C)C)c2)c(C(=O)N2CC(F)(F)C2)c1` [Example 305] came in with an IC50 of less than 100 nM. As for `COCCNCc1cc(C(=O)Nc2cc(-c3ccc(Cl)cc3C(=O)N3CC4(COC4)C3)cc(C3CC3)n2)c(=O)n(C2CC2)c1` [Example 306], the IC50 is less than 100 nM. `COCCNCc1cc(C(=O)Nc2cc(-c3ccc(Cl)cc3C(=O)N(C)C)cc(C3CC3)n2)c(=O)n(C2CC2)c1` [Example 307] yielded a 50% inhibitory concentration (IC50) of less than 100 nM. The same measure for `COc1ccc(-c2cc(NC(=O)c3cc(CNC[C@H](C)OC)cn(C)c3=O)nc(OC(C)C)c2)c(C(=O)N2CC(F)(F)C2)c1` [Example 308]: less than 100 nM; for `Cc1ccc(-c2cc(NC(=O)c3cc(CNC[C@@H]4CCCO4)cn(C4CC4)c3=O)nc(OC(C)C)c2)c(C(=O)N2CC(F)C2)c1` [Example 309]: less than 100 nM; for `CC(C)CNCc1cc(C(=O)Nc2cc(-c3ccc(C(F)F)cc3C(=O)N3CC(F)C3)cc(OC(C)C)n2)c(=O)n(C2CC2)c1` [Example 310]: less than 100 nM. `COc1ccc(-c2cc(NC(=O)c3cc(CNC[C@@H]4CCCO4)cn(C4CC4)c3=O)nc(OC(C)C)c2)c(C(=O)N2CC(F)(F)C2)c1` [Example 311] had a half-maximal inhibitory concentration (IC50) of less than 100 nM. The same measure for `COc1ccc(-c2cc(NC(=O)c3cc(CN[C@@H](C)C4CC4)cn(C)c3=O)nc(C3CC3)c2)c(C(=O)N2CC(F)C2)c1` [Example 312]: less than 100 nM. The same measure for `COc1ccc(-c2cc(NC(=O)c3cc(CN[C@@H](C)[C@H](C)OC)cn(C)c3=O)nc(C3CC3)c2)c(C(=O)N2CC(F)C2)c1` [Example 313]: less than 100 nM; for `CO[C@@H](C)CNCc1cc(C(=O)Nc2cc(-c3ccc(Cl)cc3C(=O)N3CC[C@@H]3C)cc(C3CC3)n2)c(=O)n(C2CC2)c1` [Example 314]: less than 100 nM; for `COc1ccc(-c2cc(NC(=O)c3cc(CNCC(C)C)cn(C)c3=O)nc(C3CC3)c2)c(C(=O)N2CC(F)C2)c1` [Example 315]: less than 100 nM. On to `CCNc1cc(-c2ccc(OC(F)F)cc2C(=O)N2CC(F)C2)cc(NC(=O)c2cc(CNC[C@@H]3CCCO3)cn(C)c2=O)n1` [Example 316], for which the half-maximal inhibitory concentration (IC50) is less than 100 nM. The same measure for `COc1ccc(-c2cc(NC(=O)c3cc(CNCC(C)C)cn(C)c3=O)nc(OC(C)C)c2)c(C(=O)N2CC(F)C2)c1` [Example 317]: less than 100 nM. The same measure for `COc1ccc(-c2cc(NC(=O)c3cc(CN[C@@H](CO)C4CCC4)cn(C4CC4)c3=O)nc(OC(C)C)c2)c(C(=O)N2CC(F)C2)c1` [Example 318]: less than 100 nM.

Consider `COc1ccc(-c2cc(NC(=O)c3cc(CNC[C@@H]4CCCO4)cn(C)c3=O)nc(C3CC3)c2)c(C(=O)N2CC(F)C2)c1` [Example 319], for which the IC50 is less than 100 nM. In turn, `Cc1ccc(-c2cc(NC(=O)c3cc(CNC[C@@H]4CCCO4)cn(C)c3=O)nc(OC(C)C)c2)c(C(=O)N2CC(F)C2)c1` [Example 320] returned an IC50 of less than 100 nM. The same measure for `CO[C@@H](C)CNCc1cc(C(=O)Nc2cc(-c3ccc(OC(F)F)cc3C(=O)N3CC(F)(F)C3)cc(C3CC3)n2)c(=O)n(C2CC2)c1` [Example 321]: less than 100 nM; for `CC(C)CNCc1cc(C(=O)Nc2cc(-c3ccc(OC(F)F)cc3C(=O)N3CC(F)(F)C3)cc(C3CC3)n2)c(=O)n(C2CC2)c1` [Example 322]: less than 100 nM. In turn, `C[C@H](N[C@H](C)c1cc(C(=O)Nc2cc(-c3ccc(C#N)cc3C(=O)N3CC(F)(F)C3)cc(C3CC3)n2)c(=O)n(C2CC2)c1)C1CC1` [Example 323] registered a half-maximal inhibitory concentration (IC50) of less than 100 nM.

The compound `CO[C@@H](C)CNC(C)c1cc(C(=O)Nc2cc(-c3ccc(C#N)cc3C(=O)N3CC(F)(F)C3)cc(C3CC3)n2)c(=O)n(C2CC2)c1` (stereo partly shown) [Example 324] came in with an IC50 of less than 100 nM. Consider `O=C(Nc1cc(-c2ccc(OC(F)F)cc2C(=O)N2CC(F)(F)C2)cc(C2CC2)n1)c1cc(CNC[C@@H]2CCCO2)cn(C2CC2)c1=O` [Example 325], for which the half-maximal inhibitory concentration (IC50) was less than 100 nM. The compound `CC(C)CNC(C)c1cc(C(=O)Nc2cc(-c3ccc(C#N)cc3C(=O)N3CC(F)(F)C3)cc(C3CC3)n2)c(=O)n(C2CC2)c1` (stereo not shown) [Example 326] gave an IC50 of less than 100 nM.

On to `C[C@H](NCc1cc(C(=O)Nc2cc(-c3ccc(OC(F)F)cc3C(=O)N3CC(F)(F)C3)cc(C3CC3)n2)c(=O)n(C2CC2)c1)C1CCC1` [Example 327], for which the IC50 was less than 100 nM. The same measure for `C[C@H](N[C@@H](C)C1CC1)c1cc(C(=O)Nc2cc(-c3ccc(C#N)cc3C(=O)N3CC(F)(F)C3)cc(C3CC3)n2)c(=O)n(C2CC2)c1` [Example 328]: less than 100 nM. For `CC(N[C@@H](C)C1CCC1)c1cc(C(=O)Nc2cc(-c3ccc(C#N)cc3C(=O)N3CC(F)(F)C3)cc(C3CC3)n2)c(=O)n(C2CC2)c1` (stereo partly shown) [Example 329] the value was less than 100 nM; for `CCNc1cc(-c2ccc(OC(F)F)cc2C(=O)N2CC(F)(F)C2)cc(NC(=O)c2cc(CNC[C@H](C)OC)cn(C3CC3)c2=O)n1` [Example 330], less than 100 nM; for `CCOc1cc(-c2ccc(OC(F)F)cc2C(=O)N2CC(F)(F)C2)cc(NC(=O)c2cc(CNC[C@H](C)OC)cn(C3CC3)c2=O)n1` [Example 331], less than 100 nM. For `CO[C@@H](C)CNCc1cc(C(=O)Nc2cc(-c3ccc(OC(F)F)cc3C(=O)N3CC(F)(F)C3)cc(NC(C)C)n2)c(=O)n(C2CC2)c1` [Example 332] the value was less than 100 nM; for `CC(NCC1CC1)c1cc(C(=O)Nc2cc(-c3ccc(C#N)cc3C(=O)N3CC(F)(F)C3)cc(C3CC3)n2)c(=O)n(C2CC2)c1` (stereo not shown) [Example 333], less than 100 nM; for `COc1cc(-c2ccc(OC(F)F)cc2C(=O)N2CC(F)(F)C2)cc(NC(=O)c2cc(CNC[C@H](C)OC)cn(C3CC3)c2=O)n1` [Example 334], less than 100 nM. In the case of `COC[C@H](C)NC(C)c1cc(C(=O)Nc2cc(-c3ccc(C#N)cc3C(=O)N3CC(F)(F)C3)cc(C3CC3)n2)c(=O)n(C2CC2)c1` (stereo partly shown) [Example 335], the IC50 was less than 100 nM. In turn, `CC(C)[C@H](C)N[C@@H](C)c1cc(C(=O)Nc2cc(-c3ccc(C#N)cc3C(=O)N3CC(F)(F)C3)cc(C3CC3)n2)c(=O)n(C2CC2)c1` [Example 336] returned a half-maximal inhibitory concentration (IC50) of less than 100 nM.

Turning to `COCCNCc1cc(C(=O)Nc2cc(-c3ccc(OC(F)F)cc3C(=O)N3CC(F)(F)C3)cc(C3CC3)n2)c(=O)n(C2CC2)c1` [Example 337], the IC50 was less than 100 nM. Consider `CO[C@@H](C)CNCc1cc(C(=O)Nc2cc(-c3ccc(OC(F)F)cc3C(=O)N3CC(F)(F)C3)cc(C)n2)c(=O)n(C2CC2)c1` [Example 338], for which the IC50 was less than 100 nM. The same measure for `CO[C@@H](C)CNCc1cc(C(=O)Nc2cc(-c3ccc(C#N)cc3C(=O)N3CC(F)(F)C3)cc(OC(C)C)n2)c(=O)n(C2CC2)c1` [Example 339]: less than 100 nM; for `CCOc1cc(-c2c(F)cc(C#N)cc2C(=O)N2CC(F)(F)C2)cc(NC(=O)c2cc(CNC[C@H](C)OC)cn(C3CC3)c2=O)n1` [Example 340]: less than 100 nM. For the compound `N#Cc1ccc(-c2cc(NC(=O)c3cc(CNC[C@@H]4CCCO4)cn(C4CC4)c3=O)nc(OC(F)F)c2)c(C(=O)N2CC(F)(F)C2)c1` [Example 341], the IC50 is less than 100 nM. For `COCCNCc1cc(C(=O)Nc2cc(-c3ccc(C#N)cc3C(=O)N3CC(F)(F)C3)cc(NC(C)C)n2)c(=O)n(C2CC2)c1` [Example 342] the value was less than 100 nM; for `COc1ccc(-c2cc(NC(=O)c3cc(CN[C@@H](C)C4CCC4)cn(C4CC4)c3=O)nc(OCC(F)F)c2)c(C(=O)N2CC(F)(F)C2)c1` [Example 343], less than 100 nM.

For `N#Cc1ccc(-c2cc(NC(=O)c3cc(CNC[C@@H]4CCCO4)cn(C4CC4)c3=O)nc(OCF)c2)c(C(=O)N2CC(F)(F)C2)c1` [Example 344], the IC50 was less than 100 nM. For `CCOc1cc(-c2ccc(C#N)cc2C(=O)N2CC(F)(F)C2)cc(NC(=O)c2cc(CNCCOC)cn(C3CC3)c2=O)n1` [Example 345] the value was less than 100 nM. For `CCNc1cc(-c2ccc(C#N)cc2C(=O)N2CC(F)(F)C2)cc(NC(=O)c2cc(CNCCOC)cn(C3CC3)c2=O)n1` [Example 346] the value was less than 100 nM; for `Cc1ccc(-c2cc(NC(=O)c3cc(CN[C@@H](C)C4CCC4)cn(C4CC4)c3=O)nc(OCC(F)F)c2)c(C(=O)N2CC(F)(F)C2)c1` [Example 347], less than 100 nM; for `COc1ccc(-c2cc(NC(=O)c3cc(CNC[C@H](C)OC)cn(C4CC4)c3=O)nc(OCC(F)F)c2)c(C(=O)N2CC(F)(F)C2)c1` [Example 348], less than 100 nM. Compound `CO[C@@H](C)CNCc1cc(C(=O)Nc2cc(-c3ccc(C)cc3C(=O)N3CC(F)(F)C3)cc(OCC(F)F)n2)c(=O)n(C2CC2)c1` [Example 349] yielded an IC50 of less than 100 nM. The same measure for `Cn1cc(CNC[C@@H]2CCCO2)cc(C(=O)Nc2cc(-c3ccc(C#N)cc3C(=O)N3CC(F)(F)C3)cc(OCF)n2)c1=O` [Example 350]: less than 100 nM.

`C[C@H](NCc1cc(C(=O)Nc2cc(-c3ccc(C#N)cc3C(=O)N3CC(F)(F)C3)cc(C3CC3)n2)c(=O)n(C2CC2)c1)C1CCC1` [Example 351] registered a 50% inhibitory concentration (IC50) of less than 100 nM. As to `N#Cc1ccc(-c2cc(NC(=O)c3cc(CNC[C@@H]4CCCO4)cn(C4CC4)c3=O)nc(C3CC3)c2)c(C(=O)N2CC(F)(F)C2)c1` [Example 352], the IC50 was less than 100 nM.

Turning to `CO[C@@H](C)CNCc1cc(C(=O)Nc2cc(-c3ccc(Cl)cc3C(=O)N3CC(F)(F)C3)cc(C3CC3)n2)c(=O)n(C2CC2)c1` [Example 353], the 50% inhibitory concentration (IC50) was less than 100 nM. The same measure for `C[C@H](NCc1cc(C(=O)Nc2cc(-c3ccc(C#N)cc3C(=O)N3CC(F)(F)C3)cc(C3CC3)n2)c(=O)n(C)c1)[C@@H]1CCCO1` [Example 354]: less than 100 nM. In turn, `N#Cc1ccc(-c2cc(NC(=O)c3cc(CNCC4CCC4)cn(C4CC4)c3=O)nc(C3CC3)c2)c(C(=O)N2CC(F)(F)C2)c1` [Example 355] came in with a 50% inhibitory concentration (IC50) of less than 100 nM. `CC(C)CNCc1cc(C(=O)Nc2cc(-c3ccc(C#N)cc3C(=O)N3CC(F)(F)C3)cc(C3CC3)n2)c(=O)n(C2CC2)c1` [Example 356] came in with an IC50 of less than 100 nM.
